Like-named read-outs stand apart in the source and are kept apart here.
Legend:
[1] = Microsomal stability assay, human liver microsomes; format: in vitro ADME
From the text: (§1) Microsomal Stability Assay

[2] = Microsomal stability assay, rat liver microsomes; format: in vitro ADME
From the text: as §1

BACE1 = BACE1 (Homo sapiens, UniProt P56817); assay: In vitro enzymatic BACE FRET (fluorescence resonance energy transfer) assay; format: biochemical
In short: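 Fluorescence (ex 488 nm, […]) was read after Tris addition raised pH to neutral, ending a one-hour incubation. Reaction started with 50 nM fluorophore/quencher peptide substrate in pH 4.2 acetate (0.05 M) containing 100 uM genapol and 10% DMSO final.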

[3] = tested on: Cells stably expressing Amyloid Precursor Protein (APP); assay: In vitro BACE cell-based assay (HEK cell assay): Aβ40 in conditioned medium by sandwich ELISA
In short: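 Secreted Aβ40 was quantified by time-resolved fluorescence sandwich ELISA, capturing with pAb40 for 3 h at 4 °C and detecting with biotinylated 6E10 for 2 h at 4 °C. Media came from APP-expressing cells exposed 24 h to compounds (10-point series from 100 or 10 μM, 0.1% DMSO); IC50 derived from percent of control.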

CYP3A4 (CYP3A) = CYP3A4 (CYP3A) (Homo sapiens, UniProt P08684); assay: CYP3A inhibition assay (midazolam, pooled human liver microsomes); format: in vitro ADME; conditions: human, pooled human liver microsomes, pH 7.4, probe midazolam (printed as about […]); read-out: 3A4 IC50
CYP3A4 (CYP3A), sequence (P08684 2-503): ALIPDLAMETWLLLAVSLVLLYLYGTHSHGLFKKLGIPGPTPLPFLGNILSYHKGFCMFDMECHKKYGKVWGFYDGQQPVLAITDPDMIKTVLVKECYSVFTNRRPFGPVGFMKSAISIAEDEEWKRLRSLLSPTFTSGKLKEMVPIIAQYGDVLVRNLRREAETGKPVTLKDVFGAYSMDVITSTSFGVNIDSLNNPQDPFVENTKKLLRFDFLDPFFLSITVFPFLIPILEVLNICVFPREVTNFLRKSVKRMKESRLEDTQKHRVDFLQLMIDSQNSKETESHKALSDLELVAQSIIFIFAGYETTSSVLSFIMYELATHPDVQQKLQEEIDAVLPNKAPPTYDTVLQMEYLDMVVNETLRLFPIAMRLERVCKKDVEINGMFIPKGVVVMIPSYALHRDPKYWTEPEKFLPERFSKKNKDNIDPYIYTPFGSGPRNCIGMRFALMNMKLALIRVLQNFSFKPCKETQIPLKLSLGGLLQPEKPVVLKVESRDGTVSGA

[4] = Homo sapiens, HEK293, 24 h, Aβ40 in conditioned medium after 24 h incubation
[5] = Aβ40 in conditioned medium after 24 h incubation

BACE1, sequence (P56817 46-501, species assumed): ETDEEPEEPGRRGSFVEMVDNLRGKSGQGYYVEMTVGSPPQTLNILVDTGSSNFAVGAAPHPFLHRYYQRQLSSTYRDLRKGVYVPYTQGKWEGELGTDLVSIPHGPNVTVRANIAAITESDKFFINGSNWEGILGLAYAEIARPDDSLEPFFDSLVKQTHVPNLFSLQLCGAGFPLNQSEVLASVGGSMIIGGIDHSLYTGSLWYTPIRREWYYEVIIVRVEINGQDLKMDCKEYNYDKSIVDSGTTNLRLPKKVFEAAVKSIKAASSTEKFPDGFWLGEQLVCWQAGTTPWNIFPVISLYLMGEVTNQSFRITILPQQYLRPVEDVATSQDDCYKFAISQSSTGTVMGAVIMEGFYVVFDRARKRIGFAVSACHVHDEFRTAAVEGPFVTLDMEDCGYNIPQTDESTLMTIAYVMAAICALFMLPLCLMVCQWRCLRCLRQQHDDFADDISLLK

C#CC[C@H](NC(=O)[C@@H](C)OC)[C@H](O)CN[C@H]1CC2(CCC2)Oc2c1cc(CC(C)(C)C)nc2NC [compound 222]
HLM [1]: 165 µL/min/mg | RLM [2]: 156 µL/min/mg | IC50 (BACE1; read-out: BACE 1 FRET assay): 1220 nM | IC50 ([3]; Homo sapiens, HEK293): 891 nM | IC50 at 10 min (CYP3A4 (CYP3A)): 1400 nM

C=CC[C@H](NC(=O)COC)[C@H](O)CN[C@H]1CC2(CCC2)Oc2c1cc(CC(C)(C)C)nc2Nc1ccccc1 [compound 230]
HLM [1]: 345 µL/min/mg | RLM [2]: 168 µL/min/mg | IC50 (BACE1; read-out: BACE 1 FRET assay): 40 nM | IC50 ([3]; Homo sapiens, HEK293): 1380 nM | IC50 at 10 min (CYP3A4 (CYP3A)): 3500 nM

CC[C@H](NC(C)=O)[C@H](O)CN[C@H]1CC2(CCC2)Oc2ncc(CC(C)(C)C)cc21 [compound 213]
HLM [1]: 36 µL/min/mg | RLM [2]: 25 µL/min/mg | IC50 (BACE1; read-out: BACE 1 FRET assay): 60 nM | IC50 ([3]; Homo sapiens, HEK293): 339 nM | IC50 at 10 min (CYP3A4 (CYP3A)): 27000 nM

C=CC[C@H](NC(=O)COC)[C@H](O)CN[C@H]1CC2(CCC2)Oc2c(-c3nccs3)cc(CC(C)C)cc21 [compound 212, N-((1S)-1-((1R)-1-hydroxy-2-(((4S)-6-(2-methylpropyl)-8-(1,3-thiazol-2-yl)-3,4-dihydrospiro[chromene-2,1′-cyclobutan]-4-yl)amino)ethyl)-3-buten-1-yl)-2-methoxyacetamide]
HLM [1]: 775 µL/min/mg | RLM [2]: 399 µL/min/mg | IC50 (BACE1; read-out: BACE 1 FRET assay): 92 nM | IC50 ([3]; Homo sapiens, HEK293): 262 nM | IC50 at 10 min (CYP3A4 (CYP3A)): 700 nM

C=CC[C@H](NC(=O)COC)[C@H](O)CN[C@H]1CC2(CCC2)Oc2c1cc(CC(C)(C)C)nc2Nc1ccncc1 [compound 232]
HLM [1]: 551 µL/min/mg | RLM [2]: 174 µL/min/mg | IC50 (BACE1; read-out: BACE 1 FRET assay): 127 nM | IC50 ([3]; Homo sapiens, HEK293): 21 nM | IC50 at 10 min (CYP3A4 (CYP3A)): 700 nM

C=CC[C@H](NC(=O)COC)[C@H](O)CN[C@H]1CC2(CCC2)Oc2c(-c3cccnc3)cc(CC(C)(C)C)cc21 [compound 220]
HLM [1]: 569 µL/min/mg | RLM [2]: 369 µL/min/mg | IC50 (BACE1; read-out: BACE 1 FRET assay): 107 nM | IC50 ([3]; Homo sapiens, HEK293): 125 nM | IC50 at 10 min (CYP3A4 (CYP3A)): 300 nM

C=CC[C@H](NC(=O)COC)[C@H](O)CN[C@H]1CC2(CCC2)Oc2c(-c3cncs3)cc(CC(C)(C)C)cc21 [compound 217]
HLM [1]: 551 µL/min/mg | RLM [2]: 477 µL/min/mg | IC50 (BACE1; read-out: BACE 1 FRET assay): 20 nM | IC50 ([3]; Homo sapiens, HEK293): 920 nM | IC50 at 10 min (CYP3A4 (CYP3A)): 200 nM

C=CC[C@H](NC(=O)COC)[C@H](O)CN[C@H]1CC2(CCC2)Oc2c1cc(CC(C)(C)C)nc2-c1nccn1C [compound 237, N-((1S)-1-((1R)-2-(((4′S)-6′-(2,2-dimethylpropyl)-8′-(1-methyl-1H-imidazol-2-yl)-3′,4′-dihydrospiro[cyclobutane-1,2′-pyrano[2,3-c]pyridin]-4′-yl)amino)-1-hydroxyethyl)-3-buten-1-yl)-2-methoxyacetamide]
HLM [1]: 58 µL/min/mg | RLM [2]: 64 µL/min/mg | IC50 (BACE1; read-out: BACE 1 FRET assay): 1230 nM | IC50 ([3]; Homo sapiens, HEK293): 385 nM | IC50 at 10 min (CYP3A4 (CYP3A)): 160 nM

C=CC[C@H](NC(=O)COC)[C@H](O)CN[C@H]1CC2(CCC2)Oc2c1cc(CC(C)(C)C)nc2Nc1ccc2c(c1)OCO2 [compound 233, N-((1S)-1-((1R)-2-(((4′S)-8′-(1,3-benzodioxol-5-ylamino)-6′-(2,2-dimethylpropyl)-3′,4′-dihydrospiro[cyclobutane-1,2′-pyrano[2,3-c]pyridin]-4′-yl)amino)-1-hydroxyethyl)-3-buten-1-yl)-2-methoxyacetamide]
HLM [1]: 151 µL/min/mg | RLM [2]: 197 µL/min/mg | IC50 (BACE1; read-out: BACE 1 FRET assay): 16 nM | IC50 ([3]; Homo sapiens, HEK293): 388 nM | IC50 at 10 min (CYP3A4 (CYP3A)): 1300 nM

C=CC[C@H](NC(=O)[C@@H]1CC1(F)F)[C@H](O)CN[C@H]1CC2(CCC2)Oc2ncc(CC(C)(C)C)cc21 [Example 140, (1S)-N-((1S)-1-((1R)-2-(((4′S)-6′-(2,2-dimethylpropyl)-3′,4′-dihydrospiro[cyclobutane-1,2′-pyrano[2,3-b]pyridin]-4′-yl)amino)-1-hydroxyethyl)-3-buten-1-yl)-2,2-difluorocyclopropanecarboxamide]
IC50 (BACE1): 382 nM | IC50 [3, 4]: 331 nM

C=CCC(NC(C)=O)C(O)CNC1CC2(CC(O)C2)Oc2ccc(Br)cc21 [Example 117, N-((1S)-1-((1R)-2-(((2r,3′R,4S)-6-bromo-3′-hydroxy-3,4-dihydrospiro[chromene-2,1′-cyclobutan]-4-yl)amino)-1-hydroxyethyl)-3-buten-1-yl)acetamide]
IC50 (BACE1): 419 nM | IC50 [3, 5]: 1290 nM

C=CC[C@H](NC(C)=O)[C@H](O)CN[C@H]1CC2(CCC2)Oc2c1cc(CC(C)(C)C)nc2N1CCCC1 [Example 46, N-((1S)-1-((1R)-2-(((4′S)-6′-(2,2-dimethylpropyl)-8′-(1-pyrrolidinyl)-3′,4′-dihydrospiro[cyclobutane-1,2′-pyrano[2,3-c]pyridin]-4′-yl)amino)-1-hydroxyethyl)-3-buten-1-yl)acetamide]
IC50 (BACE1): 373 nM | IC50 [3, 4]: 183 nM

C=CC[C@H](NC(=O)[C@@H](OC)C(C)C)[C@H](O)CN[C@H]1CC2(CCC2)Oc2ncc(CC(C)(C)C)cc21 [Example 149, (2S)-N-((1S)-1-((1R)-2-(((4′S)-6′-(2,2-dimethylpropyl)-3′,4′-dihydrospiro[cyclobutane-1,2′-pyrano[2,3-b]pyridin]-4′-yl)amino)-1-hydroxyethyl)-3-buten-1-yl)-3-methyl-2-(methyloxy)butanamide]
IC50 (BACE1): 934 nM | IC50 [3, 4]: 1870 nM

C=CC[C@H](NC(=O)C(F)(F)F)[C@H](O)CN[C@H]1CC2(CCC2)Oc2ncc(CC(C)(C)C)cc21 [Example 94, N-((1S)-1-((1R)-2-(((4′S)-6′-(2,2-dimethylpropyl)-3′,4′-dihydrospiro[cyclobutane-1,2′-pyrano[2,3-b]pyridin]-4′-yl)amino)-1-hydroxyethyl)-3-buten-1-yl)-2,2,2-trifluoroacetamide]
IC50 (BACE1): 73 nM | IC50 [3, 4]: 154 nM

C=C(C)C[C@H](NC(=O)c1ccc2c(c1)OC(F)(F)O2)[C@H](O)CN[C@H]1CC2(CCC2)Oc2ncc(CC(C)(C)C)cc21 [Example 101, N-((1S)-1-((1R)-2-(((4′S)-6′-(2,2-dimethylpropyl)-3′,4′-dihydrospiro[cyclobutane-1,2′-pyrano[2,3-b]pyridin]-4′-yl)amino)-1-hydroxyethyl)-3-methyl-3-buten-1-yl)-2,2-difluoro-1,3-benzodioxole-5-carboxamide]
IC50 (BACE1): 9880 nM | IC50 [3, 4]: ≥ 10000 nM

C=CC[C@H](NC(=O)c1cc(F)c(F)c(F)c1)[C@H](O)CN[C@H]1CC2(CCC2)Oc2ncc(CC(C)(C)C)cc21 [Example 79, N-((1S)-1-((1R)-2-(((4′S)-6′-(2,2-dimethylpropyl)-3′,4′-dihydrospiro[cyclobutane-1,2′-pyrano[2,3-b]pyridin]-4′-yl)amino)-1-hydroxyethyl)-3-buten-1-yl)-3,4,5-trifluorobenzamide]
IC50 (BACE1): 465 nM | IC50 [3, 4]: 1970 nM

C=CC[C@H](NC(=O)c1ccc(F)cc1F)[C@H](O)CN[C@H]1CC2(CCC2)Oc2ncc(CC(C)(C)C)cc21 [Example 70, N-((1S)-1-((1R)-2-(((4′S)-6′-(2,2-dimethylpropyl)-3′,4′-dihydrospiro[cyclobutane-1,2′-pyrano[2,3-b]pyridin]-4′-yl)amino)-1-hydroxyethyl)-3-buten-1-yl)-2,4-difluorobenzamide]
IC50 (BACE1): 264 nM | IC50 [3, 4]: 526 nM

C=CC[C@H](NC(=O)COC)[C@H](O)CN[C@H]1CC2(CCC2)Oc2ncc(CC(C)(C)CF)cc21 [Example 80, N-((1S)-1-((1R)-2-(((4′S)-6′-(3-fluoro-2,2-dimethylpropyl)-3′,4′-dihydrospiro[cyclobutane-1,2′-pyrano[2,3-b]pyridin]-4′-yl)amino)-1-hydroxyethyl)-3-buten-1-yl)-2-(methyloxy)acetamide]
IC50 (BACE1): 84 nM | IC50 [3, 4]: 249 nM

C#CC[C@H](NC(C)=O)[C@H](O)CN[C@H]1CC2(CCC2)Oc2ncc(CC(C)(C)C)cc21 [Example 84, N-((1S)-1-((1R)-2-(((4′S)-6′-(2,2-dimethylpropyl)-3′,4′-dihydrospiro[cyclobutane-1,2′-pyrano[2,3-b]pyridin]-4′-yl)amino)-1-hydroxyethyl)-3-butyn-1-yl)acetamide]
IC50 (BACE1): 40 nM | IC50 [3, 4]: 222 nM

C=CCC(NC(=O)C1CN(C(=O)C(C)C)CCO1)C(O)CNC1CC2(CCC2)Oc2ncc(CC(C)(C)C)cc21 (centres unmarked) [Example 156]
IC50 (BACE1): 28 nM | IC50 [3, 4]: 33 nM

C=CCC(NC(=O)C1CC1OCC)C(O)CNC1CC2(CCC2)Oc2ncc(CC(C)(C)C)cc21 [Example 154, (1R,2S)-N-((1S)-1-((1R)-2-(((4′S)-6′-(2,2-dimethylpropyl)-3′,4′-dihydrospiro[cyclobutane-1,2′-pyrano[2,3-b]pyridin]-4′-yl)amino)-1-hydroxyethyl)-3-buten-1-yl)-2-(ethyloxy)cyclopropanecarboxamide; (1S,2R)-N-((1S)-1-((1R)-2-(((4′S)-6′-(2,2-dimethylpropyl)-3′,4′-dihydrospiro[cyclobutane-1,2′-pyrano[2,3-b]pyridin]-4′-yl)amino)-1-hydroxyethyl)-3-buten-1-yl)-2-(ethyloxy)cyclopropanecarboxamide]
IC50 (BACE1): 137 nM | IC50 [3, 5]: 242 nM

C=CC[C@H](NC(=O)COC)[C@H](O)CN[C@H]1CC2(CCC2)Oc2ncc(CC(C)(C)C#N)cc21 [Example 55, N-((1S)-1-((1R)-2-(((4′S)-6′-(2-cyano-2-methylpropyl)-3′,4′-dihydrospiro[cyclobutane-1,2′-pyrano[2,3-b]pyridin]-4′-yl)amino)-1-hydroxyethyl)-3-buten-1-yl)-2-(methyloxy)acetamide]
IC50 (BACE1): 3400 nM | IC50 [3, 4]: 7580 nM

From patent publication US8633315B2, “Substituted hydroxyethyl amine compounds as beta-secretase modulators and methods of use” (Amgen Inc., priority 2007, dated 2014)
